Values joined by “and” are separate entries in the source; they are usually repeats but may differ in a detail not shown here. Equal entries are not always repeated.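 Protocol summary: plate cells (96-well), add compound at 5 concentrations, incubate 48 h, interpolate endpoints linearly. At the GI50, growth is halved. Definition used: TGI = concentration required for complete inhibition of growth.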
Tested on: MDA-MB-468 breast
Experiment: NCI tumour cell line growth inhibition, 48 h

Structure (SMILES) | GI50 | TGI
CCN1C(=O)N(CC)C2C1NN=c1s/c(=C3\C(=O)Nc4ccccc43)c(=O)n12 (stereo not drawn) | 0.297 µM | 2.82 µM
COc1ccc(CCN2CCCn3c2nc2ccccc2c3=O)cc1 | 0.0392 µM | 43.9 µM
CN[C@@H](C)C(=O)N[C@H](C(=O)N1CCC[C@H]1c1nc(C(=O)c2ccc(F)cc2)cs1)C1CCCCC1 | 0.591 µM | 20.3 µM
CN1CCN(C2=C(Cl)C(=O)c3ccccc3C2=O)CC1 | 1.11 µM | 2.61 µM
O=[N+]([O-])c1ccccc1/C=N\NC(=S)N/N=C/c1ccccc1[N+](=O)[O-] | 1.4 µM | 21.3 µM
Nc1[nH]nc(Nc2ccccc2)c1-c1nc2ccccc2s1 | 2.23 µM | 5.98 µM
COc1ccc(Cn2cc3c(c2-c2ccccc2)CCc2cnoc2-3)cc1 | 0.0795 µM | > 100 µM
CNC(=O)c1c(NC(=O)c2ccccc2C(F)(F)F)sc2c1CCC(=O)C2 | 1.81 µM | 5.36 µM
O=C1c2c(c3c4cc(F)ccc4oc3c3[nH]c4ccccc4c23)C(=O)N1O | 2.14 µM | 7.93 µM
COc1ccc(-n2nc(C)c3c(Nc4ccc(NC(=O)Nc5cccc(C(F)(F)F)c5)cc4)ncnc32)cc1 | 2.02 µM | 4.9 µM
CCc1nc(N)nc(N)c1C#CC(C)c1ccc(-c2ccncc2)cc1Cl (stereo not drawn) | – | 1.57 µM and 6.46 µM
O=[N+]([O-])c1ccc(Sc2cccc[n+]2[O-])c2nonc12 | 5.78 µM | 20.7 µM
COC(=O)CNC(=O)C(=O)c1c(O)c(O)c(C(C)C)c2cc(C)c(-c3c(C)cc4c(C(C)C)c(O)c(O)c(C(=O)C(=O)NCC(=O)OC)c4c3O)c(O)c12 | 1.46 µM | 4.8 µM
COc1ccc(-c2nc(NC(=O)CS(=O)(=O)c3ccc(F)cc3)sc2C)cc1 | 7.05 µM | 53.8 µM
NC(CSC(c1ccccc1)(c1ccccc1)c1ccccc1)C(=O)O (stereo not drawn) | 0.406 µM | 6.24 µM
Cc1cccc(N2CCN(C3=C(Cl)C(=O)c4ncccc4C3=O)CC2)c1 | 1.54 µM | 3.08 µM
Cc1cccc(CNc2c3ccccc3nc3ccccc23)c1 | 1.58 µM | 3.63 µM
O=C1/C(=C/c2ccc(F)cc2)COc2ccc(O)c(O)c21 | 2.28 µM | 5.6 µM
O=C(CSc1nc2ccccc2c(=O)n1-c1ccc(Cl)cc1)N/N=C/c1ccc(Oc2ccc(Cl)cc2)cc1 | 2.08 µM | 5.08 µM
CC(=O)CC[N+](C)(C)C | 1.75 µM | 4.39 µM
COc1cc2c(O[C@@H]3OC[C@H](OC(C)=O)[C@H](OC(C)=O)[C@H]3O)c3c(c(-c4ccc5c(c4)OCO5)c2cc1OC)C(=O)OC3 | 0.731 µM | > 10 µM
C[C@H]1C[C@@H](n2c(Nc3ccc(OC(F)(F)F)cc3)nc3cc(CCC(=O)O)ccc32)CC(C)(C)C1 | 15.7 µM | 38.6 µM
O=C(CSSCC(=O)c1ccc(Cl)cc1)c1ccc(Cl)cc1 | 2.26 µM | 5.98 µM
CCN(Cc1ccc(Cl)c(Cl)c1)c1ccc2nc(N)nc(N)c2c1C | 0.0138 µM | 1.3 µM
Cc1ccc(S(=O)(=O)c2nc(-c3ccc(F)cc3)oc2S(C)(=O)=O)cc1 | 2.5 µM | > 19.8 µM
CN(C)S(=O)(=O)c1cccc(C(=O)Nc2nc(-c3ccc(F)c(F)c3)cs2)c1 | 3.79 µM | 97.5 µM
O=C(O)CCCN1C(=O)/C(=C/C(Cl)=C/c2ccccc2)SC1=S | 1.18 µM | 3.29 µM
